Laboratory results as given in patent publication US9243278B2, “Mechanotransduction by the synergistic action of heterotypic cell interactions” (Brown University, priority 2011, dated 2016).
Entries after “also recorded” stand apart in the source; their conditions may differ.

How the values were obtained:
[1] = test system: normal human fibroblasts (NHF); assay: toroid-on-cone cell power assay, homotypic NHF toroids; format: cell-based
Experimental: (§1) Toroid molds suitable for side view microcopy were designed as previously described (9). Toroid molds were designed using the computer aided design (CAD) software Solid Works (Solid Works Corporation, Concord, Mass., USA). The mold was designed with 12 features to create wells. Each feature is a rounded edged (350 μm in diameter) cylinder (1.1 mm) with a cone indent in the center. The slope of the central cone was 65° and it is 650 μm in diameter. CAD files were used to produce thermowax molds with a rapid prototyping machine (3D Systems Corporation, Valencia, Calif.).
(§2) Wax molds were used to cast 13% polyacrylamide gels. Gels were removed from wax molds and transferred to six well culture plates. Each of the resulting wells is a circular trough confined by the hydrogel wall at the outer edge of the trough and by a conical peg on the inner edge of the trough. The gels were rinsed with fresh culture medium and then equilibrated overnight at 37° C. in 4 ml of DMEM supplemented with 1% penicillin/streptomycin (pen/strep). After equilibration, the medium was removed, and the gels were rinsed with fresh medium.
NHFs (passage 4-10), derived from neonatal foreskins, and H35s (passage 5-11) were grown in T-175 flasks in DMEM with 10% FBS and 1% pen/strep at 37° C. and 10% CO2. Cells were removed from flasks using a standard trypsin process. Briefly, cells were exposed to 0.05% trypsin for 10 minutes, quenched with serum containing medium, spun down at 800 rpm for 6 minutes, resuspended in a known volume of medium, and counted using a hemocytometer. Cell solution (70 μl) was added to each hydrogel. After 30 minutes, 4 ml of fresh medium was added to each of the wells. After seeding, images of the samples were taken every 2 hours for about 8 hours. Pure NHF microtissues were seeded with about 10,500, about 21,000, about 25,000 or about 35,000 cells/well. Heterotypic microtissues were seeded at ratios of about 1:1, about 2:3, about 1:4; about 1:6, about 1:10, about 1:16, and about 1:20 (NHF:H35). The seeding per well for heterotypic samples was kept constant at about 21,000 cells/well. For TGF-β1 experiments, NHFs and H35s were incubated for 48 hours in DMEM with 10% FBS, 1% penn/strep and 5 ng/ml human recombinant TGF-β1 (Invitrogen, Carlsbad, Calif., USA), passed according to standard protocol, and seeded at about 21,000 cells/well. NHFs^TGF-β1 coseeded with H35s were seeded in DMEM with 10% FBS, 1% penn/strep without additional TGF-β1. […]
(§3) Convential view fluorescent and phase images were captured using Carl Zeiss Axio Observer Z1 with an AxioCam Mrm camera (Carl Zeiss MicroImaging, Thornwood, N.Y., USA). To capture side view images, a Mitutoyo FS-110 microscope was modified to lie on its back and a translational stage was added to hold samples. Samples were imaged in bright field through the eyepiece of the microscope. ImageJ Software (NIH Rasband, W.S. USA) was used to measure the height of the toroid, the major radius, and the minor radius of the toroid.
(§4) The range of power exerted by increasing numbers of NHFs (>3 fold) in a homotypic environment by seeding the cells into non-adhesive hydrogels with toroid recesses, each with a central cone (65° slope) was measured. Cells settled and formed cell-cell adhesions that drove the toroid shaped microtissue up the cone. The power necessary to move the NHF toroid up the cone as P=ΔW/Δt was calculated, where ΔW is work performed against gravity to move a toroid of a known mass to a given height, and Δt is the time over which the work is performed (9). […] Toroid power increased linearly as cell number increased, but power per NHF (cell power) was independent of cell number, with a peak cell power of 0.22±0.02 fJ/hr (2 hrs) and an average cell power (over all time points) of 0.16±0.03 fJ/hr.

[2] = test system: heterotypic toroids of NHFs and H35s; assay: toroid-on-cone cell power assay, heterotypic NHF:H35 toroids; format: cell-based, human, rat
Experimental: as §1, §2
NHFs (passage 4-10), derived from neonatal foreskins, and H35s (passage 5-11) were grown in T-175 flasks in DMEM with 10% FBS and 1% pen/strep at 37° C. and 10% CO2. Cells were removed from flasks using a standard trypsin process. Briefly, cells were exposed to 0.05% trypsin for 10 minutes, quenched with serum containing medium, spun down at 800 rpm for 6 minutes, resuspended in a known volume of medium, and counted using a hemocytometer. Cell solution (70 μl) was added to each hydrogel. After 30 minutes, 4 ml of fresh medium was added to each of the wells. After seeding, images of the samples were taken every 2 hours for about 8 hours. Pure NHF microtissues were seeded with about 10,500, about 21,000, about 25,000 or about 35,000 cells/well. Heterotypic microtissues were seeded at ratios of about 1:1, about 2:3, about 1:4; about 1:6, about 1:10, about 1:16, and about 1:20 (NHF:H35). The seeding per well for heterotypic samples was kept constant at about 21,000 cells/well. For TGF-β1 experiments, NHFs and H35s were incubated for 48 hours in DMEM with 10% FBS, 1% penn/strep and 5 ng/ml human recombinant TGF-β1 (Invitrogen, Carlsbad, Calif., USA), passed according to standard protocol, and seeded at about 21,000 cells/well. NHFs^TGF-β1 coseeded with H35s were seeded in DMEM with 10% FBS, 1% penn/strep without additional TGF-β1.
as §3, §4
The data shown in Table 1 show heterotypic toroids have enhanced power. […]

[3] = homotypic toroid 100% NHF^TGF-β

transforming growth factor-β1 [TGF-β1]
height of the NHF^TGF-β1 toroid relative to untreated NHFs ([1]; 2 hours, NHFs treated 48 hours in 5 ng/ml TGF-β1): twice as far; also recorded: increased two fold | average cell power ([1]; NHF^TGF-β1): 0.16 ± 0.21 fJ/h | peak cell power ([1]; NHF^TGF-β1, 2 hrs): 0.47 fJ/h | Toroid Power ([1]; NHF^TGF-β1 homotypic toroid, two hours): 9.82 ± 1.32 pJ/h | increase in NHF cell power in the homotypic environment ([1]; TGF-β treatment alone): about 1.9 fold | change in NHF cell power relative to untreated controls (in words) ([1]; homotypic NHF toroids treated with TGF-β1): doubling in cell power; also recorded: increased only two fold; also recorded: doubled; also recorded: doubles cell power | Enhancement in NHF Cell Power [1, 3]: 0.23 fJ/hr/NHF | Toroid Power [1, 3]: 9.80 pJ/h | Enhancement in Toroid Power ([1]; homotypic toroid 100% NHF^TGF-β versus control): 4.7 pJ/h | Fold Increase in NHF Cell Power ([1]; homotypic toroid 100% NHF^TGF-β, effects of TGF-β alone): 1.9x | H35 has Enhanced Power ([2]; 1:1 (NHF^TGF-β:H35)): 0.11 fJ/hr per H35 | NHF has Enhanced Power ([2]; 1:1 (NHF^TGF-β:H35)): 0.58 fJ/hr per NHF | Relative Increase in NHF Cell Power ([2]; 1:1 (NHF^TGF-β:H35)): 2.4x | Measured Toroid Power ([2]; 1:1 (NHF^TGF-β:H35), at time of peak power, NHFs pretreated 48 hours with 5 ng/ml TGF-β1): 6.05 pJ/h | Enhanced Toroid Power ([2]; 1:1 (NHF^TGF-β:H35), measured minus projected): 1.16 pJ/h | Projected Toroid Power ([2]; 1:1 (NHF^TGF-β:H35), power per TGF-β treated NHF x number of NHFs): 4.90 pJ/h | toroid height relative to respective control ([2]; 1:1 NHF^TGF-β1 mixed with untreated H35s): 1.4 times | Enhanced Toroid Power ([2]; 1:10 (NHF^TGF-β:H35)): 4.41 pJ/h | H35 has Enhanced Power ([2]; 1:10 (NHF^TGF-β:H35)): 0.23 fJ/hr per H35 | NHF has Enhanced Power ([2]; 1:10 (NHF^TGF-β:H35)): 5.30 fJ/hr per NHF | Projected Toroid Power ([2]; 1:10 (NHF^TGF-β:H35)): 0.89 pJ/h | Relative Increase in NHF Cell Power ([2]; 1:10 (NHF^TGF-β:H35)): 22.1x | Measured Toroid Power ([2]; 1:10 (NHF^TGF-β:H35), peak power, combination of 6 and 8 hours): 5.30 pJ/h | toroid height relative to respective control ([2]; 1:10 NHF^TGF-β1 mixed with untreated H35s): 4.4 times | Enhanced Toroid Power ([2]; 1:20 (NHF^TGF-β:H35)): 3.63 pJ/h | H35 has Enhanced Power ([2]; 1:20 (NHF^TGF-β:H35)): 0.18 fJ/hr per H35 | NHF has Enhanced Power ([2]; 1:20 (NHF^TGF-β:H35)): 4.13 fJ/hr per NHF | Projected Toroid Power ([2]; 1:20 (NHF^TGF-β:H35)): 0.47 pJ/h | Relative Increase in NHF Cell Power ([2]; 1:20 (NHF^TGF-β:H35)): 17.2x | Measured Toroid Power ([2]; 1:20 (NHF^TGF-β:H35), at time of peak power): 4.10 pJ/h | toroid height relative to respective control ([2]; 1:20 NHF^TGF-β1 mixed with untreated H35s): 6.3 times | Enhancement in NHF Cell Power ([2]; 5%:95% (NHF^TGF-β:H35)): 4.13 fJ/hr/NHF | Enhancement in Toroid Power ([2]; 5%:95% (NHF^TGF-β:H35)): 3.63 pJ/h | Fold Increase in NHF Cell Power ([2]; 5%:95% (NHF^TGF-β:H35)): 17.2x | Toroid Power ([2]; 5%:95% (NHF^TGF-β:H35)): 4.10 pJ/h | Enhancement in NHF Cell Power ([2]; 10%:90% (NHF^TGF-β:H35)): 5.30 fJ/hr/NHF | Enhancement in Toroid Power ([2]; 10%:90% (NHF^TGF-β:H35)): 4.41 pJ/h | Toroid Power ([2]; 10%:90% (NHF^TGF-β:H35)): 5.30 pJ/h | Fold Increase in NHF Cell Power ([2]; 10%:90% (NHF^TGF-β:H35), effects of TGF-β & hetero environment): 22.1x | Enhancement in NHF Cell Power ([2]; 50%:50% (NHF^TGF-β:H35)): 0.58 fJ/hr/NHF | Enhancement in Toroid Power ([2]; 50%:50% (NHF^TGF-β:H35)): 1.16 pJ/h | Fold Increase in NHF Cell Power ([2]; 50%:50% (NHF^TGF-β:H35)): 2.4x | Toroid Power ([2]; 50%:50% (NHF^TGF-β:H35)): 6.05 pJ/h | total cell power ([2]; NHF^TGF-β1, about 1:10 mix, between four and eight hours): 5.3 ± 1.32 fJ/h | peak cell power ([2]; NHF^TGF-β1, about 1:20 mix): 4.13 ± 1.22 fJ/h | increase in cell power, heterotypic environment and TGF-β1 ([2]; TGF-β1 treated NHFs with untreated H35s, enhanced power distributed to NHFs): 22 × | increase in cell power, TGF-β1 treatment in conjunction with the heterotypic environment ([2]; compared to untreated NHFs in a homotypic toroid): greater than 22 times | increase in NHF cell power, TGF-β1 treatment combined with heterotypic environment ([2]; compared to untreated NHFs in homotypic toroid, 10% NHFs: 90% H35s): about 22.1 fold | increase of NHF^TGF-β1 cell power in the heterotypic environment ([2]; versus NHF^TGF-β1 in homotypic environment): greater than 11 times
